From patent US9062070B2, “Inhibitors of the renal outer medullary potassium channel” (Merck Sharp & Dohme Corp., priority 2011, dated 2015)

Key:
Kir1.1 (ROMK1) = Kir1.1 (ROMK1) (Homo sapiens (Human), UniProt P48048); assay: Electrophysiology Assay (whole cell voltage clamp, IonWorks Quattro); format: cell-based; conditions: Chinese hamster ovary cells stably expressing Kir1.1; block during voltage step to 0 mV
Description: Block of Kir1.1 (ROMK1) currents was examined by whole cell voltage clamp (Hamill et. al. […] Prior to an experiment, Kir1.1 expression was induced by overnight incubation with 1 mM sodium butyrate. […] After centrifugation, the cell pellet was resuspended in approximately 4.0 mL of bath solution and placed in the IonWorks instrument. The intracellular solution consisted of (in mM): 80 K gluconate, 40 KCl, 20 KF, 3.2 MgCl2, 3 EGTA, 5 Hepes, pH 7.4. […] Amphotericin B (Sigma A-4888) was prepared as a 40 mg/mL solution in DMSO. Voltage protocols and current recordings were performed using the IonWorks HT software/hardware system. […] No correction for liquid junction potentials was used. The test pulse, consisting of a 100 ms step to 0 mV from a holding potential of −70 mV, followed by a 100 ms voltage ramp from −70 mV to +70 mV, was applied before and after a 6 min compound incubation period. Test compounds were prepared by diluting DMSO stock solutions into the bath solution at 3× the final concentration and placed in the instrument in 96-well polypropylene plates. Current amplitudes were measured using the IonWorks software. To assess compound potency, the fractional block during the voltage step to 0 mV was calculated in Microsoft Excel (Microsoft, Redmond, Calif.), and dose-response curves were fitted with Igor Pro 4.0 (WaveMetrics, Lake Oswego, Oreg.).

hROMK (hKir1.1) = hROMK (hKir1.1) (Homo sapiens (Human), UniProt P48048); assay: Thallium Flux Assay (ROMK channel functional thallium flux, FLIPR-Tetra); format: cell-based; conditions: HEK293 cells stably expressing hROMK (hKir1.1)
Description: HEK293 cells stably expressing hROMK (hKir1.1) were grown at 37° C. in a 10% CO2 humidified incubator in complete growth media: Dulbecco's Modified Eagle Medium supplemented with non-essential amino acids, Penicillin/Streptomycin/Glutamine, G418 and FBS. At >80% confluency, aspirate the media from the flask and rinse with 10 mL Calcium/Magnesium-free PBS. Add 5 mL of 1× trypsin (prepared in Ca/Mg Free PBS) to T-225 flask and return flask to 37° C./CO2 incubator for 2-3 minutes. To dislodge the cell, gently bang the side of the flask with your hand. Triturate the cells completely and then transfer the cells to 25 mL complete media. Centrifuge at 1,500 rpm for 6 min followed by resuspension in complete growth media and determine cell concentration. For typical re-seeding, 4E6 cells/T-225 flask will attain>80% confluency in 4 days. Under ideal growth conditions and appropriate tissue culture practices, this cell line is stable for 40-45 passages.
• FluxOR™ Reagent (Component A) • FluxOR™ Assay Buffer (Component B)—10× Concentrate • PowerLoad™ Concentrate (Component C)—100× Concentrate • Probenecid (Component D)—Lyophilized sample is kept at −20° C. Water soluble, 100× after solubilization in 1 mL water. Store at 4° C. • FluxOR™ Chloride-free Buffer (Component E)—5× Concentrate • Potassium sulfate (K2SO4) Concentrate (Component F)—125 mM in water. Store at 4° C. • Thallium sulfate (Tl2SO4) Concentrate (Component G)—50 mM in water. Store at 4° C. • DMSO (dimethyl sulfoxide, Component H)—1 mL (100%) Reagent Preparation: FluxOR Working Solutions • 1000× FluxOR™ Reagent: Reconstitute a vial of component A in 100 μl DMSO; Mix well; Store 10 μl aliquots at −20° C. • 1× FluxOR™ Assay Buffer: Dilute Component B 10-fold with water; Adjust pH to 7.4 with Hepes/NaOH; Filter and store at 4° C. • Probenecid/Assay Buffer: 100 mL of 1× FluxOR™ Assay Buffer; 1 mL of reconstituted component D; Store at 4° C. • Loading Buffer (per microplate): 10 μl 1000× FluxOR™ Reagent; 100 μl component C; 10 mL Probenecid/Assay Buffer • Compound Buffer (per microplate): 20 mL Probenecid/Assay Buffer; 0.3 mM ouabain (10 mM ouabain in water can be stored in amber bottle/aluminum foil at room temperature); Test compound • 1× FluxOR™ Chloride-Free Buffer: Prepare 1× working solution in water. Can be stored at room temperature • Stimulant Buffer (prepared at 5× final concentration in 1× FluxOR™ Chloride-Free Buffer): 7.5 mM Thallium sulfate and 0.75 mM Potassium sulfate (to give a final assay concentration of 3 mM Thallium/0.3 mM Potassium). Store at 4° C. when not in use. If kept sterile, this solution is good for months. Assay Protocol—
The ROMK channel functional thallium flux assay is performed in 384 wells, using the FLIPR-Tetra instrument. HEK-hKir1.1 cells are seeded in Poly-D-Lysine microplates and kept in a 37° C.-10% CO2 incubator overnight. On the day of the experiment, the growth media is replaced with the FluxOR™ reagent loading buffer and incubated, protected from light, at ambient temperature (23-25° C.) for 90 min. The loading buffer is replaced with assay buffer±test compound followed by 30 min incubation at ambient temperature, where the Thallium/Potassium stimulant is added to the microplate.
• 1. Seed HEK-hKir1.1 cells (50 μl at 20,000 cells/well) in 384-well PDL coated Microplates • 2. Allow cells to adhere overnight in humidified 37° C./10% CO2 incubator • 3. Completely remove cell growth media from microplate and replace with 25 μl loading buffer • 4. Incubate Microplate at room temperature, protected form light, for 90 min • 5. Remove loading buffer and replace with 25 μl 1× Assay Buffer±test compound. • 6. Incubate microplate at room temperature, protected form light, for 30 min • 7. At FLIPR-Tetra 384: Add stimulant (Thallium/Potassium) solution to microplate and monitor fluorescence. Excitation=400 nm, Emission=460 & 580 nm. Collect data for ˜10 min. Data Calculation—

Chain of hROMK (hKir1.1) (P48048 whole entry): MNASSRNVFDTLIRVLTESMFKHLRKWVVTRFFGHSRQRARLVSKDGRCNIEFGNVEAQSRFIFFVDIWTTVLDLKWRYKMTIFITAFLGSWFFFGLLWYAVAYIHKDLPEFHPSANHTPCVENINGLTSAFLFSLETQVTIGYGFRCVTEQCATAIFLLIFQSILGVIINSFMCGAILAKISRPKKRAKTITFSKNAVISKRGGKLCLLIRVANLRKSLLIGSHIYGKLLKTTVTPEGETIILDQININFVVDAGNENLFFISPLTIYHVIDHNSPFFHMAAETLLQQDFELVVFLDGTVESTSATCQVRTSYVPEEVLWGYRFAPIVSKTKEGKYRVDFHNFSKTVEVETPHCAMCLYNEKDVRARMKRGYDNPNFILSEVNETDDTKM
Chain of Kir1.1 (ROMK1) (P48048 whole entry): as above

SMILES	IC50 (Kir1.1 (ROMK1))	IC50 (hROMK (hKir1.1))
COc1cc(F)c([C@H]2CN3CCN(C(=O)C4CCc5nc(-n6cnnn6)ccc54)C[C@@H]3CO2)cc1C#N (stereo partly shown) [Example 77]	290 nM	400 nM
N#Cc1cc([C@@H]2CN3CCN(C(=O)C4CCc5nc(-n6cnnn6)ncc54)C[C@H]3CO2)ccc1F (stereo partly shown) [Example 79]	190 nM	210 nM
N#Cc1cc([C@@H]2CN3CCN(C(=O)C4CCc5nc(-n6cnnn6)ncc54)C[C@@H]3CO2)ccc1F (stereo partly shown) [Example 80]	120 nM	260 nM
N#Cc1c(F)ccc([C@@H]2CN3CCN(C(=O)C4CCc5nc(-n6cnnn6)ncc54)C[C@@H]3CO2)c1Cl (stereo partly shown) [Example 81]	60 nM	170 nM
N#Cc1c(F)ccc([C@@H]2CN3CCN(C(=O)C4CCc5nc(-n6cnnn6)ncc54)C[C@@H]3CO2)c1Cl (stereo partly shown) [Example 82]	50 nM	140 nM
N#Cc1c(F)ccc([C@H]2CN3CCN(C(=O)C4CCc5nc(-n6cnnn6)ncc54)C[C@@H]3CO2)c1Cl (stereo partly shown) [Example 83]	80 nM	360 nM
Cc1c([C@@H]2CN3CCN(C(=O)C4CCc5cc(-n6cnnn6)cnc54)C[C@@H]3CO2)ccc(F)c1C#N (stereo partly shown) [Example 91]	140 nM	550 nM
Cc1c([C@H]2CN3CCN(C(=O)C4CCc5cc(-n6cnnn6)ncc54)C[C@H]3CO2)ccc(C#N)c1F (stereo partly shown) [Example 93]	180 nM	430 nM
Cc1c([C@H]2CN3CCN(C(=O)C4CCc5cc(-n6cnnn6)ncc54)C[C@H]3CN2)ccc(F)c1C#N (stereo partly shown) [Example 97]	90 nM	160 nM
Cc1c([C@@H]2CN3CCN(C(=O)C4CCc5nc(-n6cnnn6)ccc54)C[C@H]3CN2)ccc(F)c1C#N (stereo partly shown) [Example 98]	170 nM	390 nM
Cc1c([C@@H]2CN3CCN(C(=O)C4CCc5cc(-n6cnnn6)cnc54)C[C@H]3CN2)ccc(F)c1C#N (stereo partly shown) [Example 99]	350 nM	430 nM
Cc1c([C@@H]2CN3CCN(C(=O)C4CCc5cc(-n6cnnn6)cnc54)C[C@H]3CN2)ccc(F)c1C#N (stereo partly shown) [Example 100]	280 nM	750 nM
Cc1c([C@H]2CN3CCN(C(=O)C4CCc5nc(-n6cnnn6)ncc54)C[C@H]3CN2)ccc(F)c1C#N (stereo partly shown) [Example 102]	100 nM	450 nM
Cc1c([C@H]2CN3CCN(C(=O)C4CCc5cc(-n6cnnn6)ncc54)C[C@@H]3CN2)ccc(F)c1C#N (stereo partly shown) [Example 103]	110 nM	180 nM
Cc1c([C@H]2CN3CCN(C(=O)C4CCc5cc(-n6cnnn6)ncc54)C[C@@H]3CN2)ccc(F)c1C#N (stereo partly shown) [Example 104]	120 nM	360 nM
Cc1c([C@@H]2CN3CCN(C(=O)C4CCc5cc(-n6cnnn6)ncc54)C[C@@H]3CN2)ccc(F)c1C#N (stereo partly shown) [Example 105]	80 nM	140 nM
Cc1c([C@@H]2CN3CCN(C(=O)C4CCc5cc(-n6cnnn6)ncc54)C[C@@H]3CN2)ccc(F)c1C#N (stereo partly shown) [Example 106]	120 nM	400 nM
